This assay deals with MBL-producing P. aeruginosa clinical isolates. Kind of assay: MIC by broth microdilution (CLSI). The assay is classed as cell-based, Pseudomonas aeruginosa. The note with it: for MIC: Pseudomonas aeruginosa. On the procedure: The DMSO stock solutions of the test compounds were serially diluted to the desired concentrations in CAMHB. Then, 10 μL of the bacterial suspension (5 × 10^5 colony forming units (CFU)/mL) was combined with 200 μL of DMSO stock solutions of the test compounds in 96-well microtiter plates (1% DMSO, final). After the incubation of the plate at 37 °C for 24 h, bacterial growth was visibly evaluated by monitoring the turbidity of the resulting suspension, and the MICs were determined as the lowest concentrations of the test compounds that inhibited the visible growth of the bacteria.
Background: In broth dilution the organism is exposed to a series of concentrations in liquid medium.

Values after ≈ are worked out from the molar mass of the structure shown.

For the compound `CNC(C)C1CCC(N)C(OC2C(N)CC(N)C(OC3OCC(C)(O)C(NC)C3O)C2O)O1` (stereo not drawn) [GEN, gentamicin], the minimal inhibitory concentration (MIC) by setting is: (PA-001, blaNDM) more than 8 µg/mL; (PA-002, blaIMP) more than 8 µg/mL; (PA-007, blaNDM) more than 8 µg/mL; (PA-008, blaNDM) more than 8 µg/mL; (PA-011, blaNDM) more than 8 µg/mL; (PA-012, blaNDM) 8 µg/mL (≈ 16.8 µM). Moreover, the minimum inhibitory concentration (MIC) is more than 8 µg/mL (PA-016, blaIMP); more than 8 µg/mL (PA-017, blaNDM); more than 8 µg/mL (PA-019, blaNDM); more than 8 µg/mL (PA-020, blaNDM); more than 8 µg/mL (PA-023, blaNDM); more than 8 µg/mL (PA-025, blaNDM). Also, the minimum inhibitory concentration (MIC) was more than 8 µg/mL (PA-027, blaIMP); more than 8 µg/mL (PA-028, blaNDM); more than 8 µg/mL (PA-029, blaIMP); more than 8 µg/mL (PA-030, blaIMP); more than 8 µg/mL (PA-034, blaNDM); more than 8 µg/mL (PA-036, blaNDM). Besides, the MIC was more than 8 µg/mL (PA-038, blaNDM); not above 2 µg/mL (PA-039, blaNDM); more than 8 µg/mL (PA-044, blaNDM).

For the compound `C[C@@H](O)[C@H]1C(=O)N2C(C(=O)O)=C(SCCN=CN)C[C@H]12` [IPM, imipenem], the MIC is more than 8 µg/mL (PA-001, blaNDM); more than 8 µg/mL (PA-002, blaIMP); more than 8 µg/mL (PA-007, blaNDM); more than 8 µg/mL (PA-008, blaNDM); more than 8 µg/mL (PA-011, blaNDM); more than 8 µg/mL (PA-012, blaNDM). The MIC runs as follows: (PA-016, blaIMP) more than 8 µg/mL; (PA-017, blaNDM) more than 8 µg/mL; (PA-019, blaNDM) more than 8 µg/mL; (PA-020, blaNDM) more than 8 µg/mL; (PA-023, blaNDM) more than 8 µg/mL; (PA-025, blaNDM) more than 8 µg/mL. For the same compound, the minimal inhibitory concentration (MIC) runs as follows: (PA-027, blaIMP) more than 8 µg/mL; (PA-028, blaNDM) more than 8 µg/mL; (PA-029, blaIMP) more than 8 µg/mL; (PA-030, blaIMP) more than 8 µg/mL; (PA-034, blaNDM) more than 8 µg/mL; (PA-036, blaNDM) more than 8 µg/mL. The same compound registered an MIC (PA-038, blaNDM) of more than 8 µg/mL; a minimum inhibitory concentration (MIC) (PA-039, blaNDM) of more than 8 µg/mL; a minimal inhibitory concentration (MIC) (PA-044, blaNDM) of more than 8 µg/mL.

In turn, `C[C@@H](O)[C@H]1C(=O)N2C(C(=O)O)=C(S[C@@H]3CN[C@H](C(=O)N(C)C)C3)[C@H](C)[C@H]12` [MEM, meropenem] registered an MIC (PA-001, blaNDM) of more than 32 µg/mL; an MIC (PA-002, blaIMP) of more than 32 µg/mL; a minimum inhibitory concentration (MIC) (PA-007, blaNDM) of more than 32 µg/mL; a minimum inhibitory concentration (MIC) (PA-008, blaNDM) of more than 32 µg/mL; a minimal inhibitory concentration (MIC) (PA-011, blaNDM) of more than 32 µg/mL; an MIC (PA-012, blaNDM) of more than 32 µg/mL. The minimal inhibitory concentration (MIC) was more than 32 µg/mL (PA-016, blaIMP); more than 32 µg/mL (PA-017, blaNDM); more than 32 µg/mL (PA-019, blaNDM); more than 32 µg/mL (PA-020, blaNDM); more than 32 µg/mL (PA-023, blaNDM); more than 32 µg/mL (PA-025, blaNDM). Besides, the MIC is more than 32 µg/mL (PA-027, blaIMP); more than 32 µg/mL (PA-028, blaNDM); more than 32 µg/mL (PA-029, blaIMP); more than 32 µg/mL (PA-030, blaIMP); more than 32 µg/mL (PA-034, blaNDM); more than 32 µg/mL (PA-036, blaNDM). The compound also registered an MIC (PA-038, blaNDM) of more than 32 µg/mL; a minimum inhibitory concentration (MIC) (PA-039, blaNDM) of more than 32 µg/mL; an MIC (PA-044, blaNDM) of more than 32 µg/mL.

Take colistin [CST]: the “MIC Value” is, setting by setting: (PA-001, blaNDM) not above 1 µg/mL; (PA-002, blaIMP) not above 1 µg/mL; (PA-007, blaNDM) not above 1 µg/mL; (PA-008, blaNDM) not above 1 µg/mL; (PA-011, blaNDM) not above 1 µg/mL; (PA-012, blaNDM) not above 1 µg/mL. The “MIC Value” was not above 1 µg/mL (PA-016, blaIMP); not above 1 µg/mL (PA-017, blaNDM); not above 1 µg/mL (PA-019, blaNDM); not above 1 µg/mL (PA-020, blaNDM); not above 1 µg/mL (PA-023, blaNDM); not above 1 µg/mL (PA-025, blaNDM). For the same compound, the “MIC Value” runs as follows: (PA-027, blaIMP) not above 1 µg/mL; (PA-028, blaNDM) not above 1 µg/mL; (PA-029, blaIMP) not above 1 µg/mL; (PA-030, blaIMP) not above 1 µg/mL; (PA-034, blaNDM) not above 1 µg/mL; (PA-036, blaNDM) not above 1 µg/mL. Besides, the “MIC Value” is not above 1 µg/mL (PA-038, blaNDM); not above 1 µg/mL (PA-039, blaNDM); not above 1 µg/mL (PA-044, blaNDM).

For orientation: MIC means the lowest concentration found to suppress growth. A low value points to greater potency.

(Values after paper PMC10892423 (Pharmaceutics, 2024).)
